From patent publication US20230202990A1, “CYCLOHEXYL SUBSTITUTED TRIAZOLES” (Hoffmann-La Roche Inc., priority 2020, published 2023)

Each compound was assayed against T1, human V1a receptor (Homo sapiens, UniProt P37288) (assay: human V1a receptor binding studies (3H-Vasopressin SPA, HEK293 cell membranes)). Details: competition with 3H-Vasopressin on membranes of HEK293 cells transiently transfected with human V1a receptor; Ki by Cheng-Prussoff equation; read-out: pKi (hV1a) (converted).
T1 construct: expressed in transfected cells; host or cells: HEK293 cells, transiently transfected; cell membranes
Method: The human V1a receptor was cloned by RT-PCR from total human liver RNA. The coding sequence was subcloned in an expression vector after sequencing to confirm the identity of the amplified sequence. […] Cell membranes were prepared from HEK293 cells transiently transfected with the expression vector and grown in 20 liter fermenters with the following protocol.
50 g of cells are re-suspended in 30 ml freshly prepared ice cold Lysis buffer (50 mM HEPES, 1 mM EDTA, 10 mM MgCl2 adjusted to pH= 7.4 + complete cocktail of protease inhibitor (Roche Diagnostics)). Homogenized with Polytron for Imin and sonicated on ice for 2x 2 minutes at 80% intensity (Vibracell sonicator). The preparation is centrifuged 20 min at 500 g at 4° C., the pellet is discarded and the supernatant centrifuged 1 hour at 43 ′000g at 4° C. (19 ′000rpm). The pellet is re-suspended in 12.5 ml Lysis buffer+12.5 ml Sucrose 20% and homogenized using a Polytron for 1-2 min. The protein concentration is determined by the Bradford method and aliquots are stored at -80° C. until use. For binding studies 60 mg Yttrium silicate SPA beads (Amersham) are mixed with an aliquot of membrane in binding buffer (50 mM Tris, 120 mM NaCl, 5 mM KCl, 2 mM CaCl2, 10 mM MgCl2) for 15 minutes with mixing. 50 µl of bead/membrane mixture is then added to each well of a 96 well plate, followed by 50 µl of 4 nM 3H-Vasopressin (American Radiolabeled Chemicals). For total binding measurement 100 µl of binding buffer are added to the respective wells, for non-specific binding 100 µl of 8.4 mM cold vasopressin and for compound testing 100 µl of a serial dilution of each compound in 2% DMSO. The plate is incubated 1 h at room temperature, centrifuged 1 min at 1000 g and counted on a Packard Top-Count. Non-specific binding counts are subtracted from each well and data is normalized to the maximum specific binding set at 100%. To calculate an IC50 the curve is fitted using a non-linear regression model (XLfit) and the Ki is calculated using the Cheng-Prussoff equation.

T1 sequence (P37288 whole entry): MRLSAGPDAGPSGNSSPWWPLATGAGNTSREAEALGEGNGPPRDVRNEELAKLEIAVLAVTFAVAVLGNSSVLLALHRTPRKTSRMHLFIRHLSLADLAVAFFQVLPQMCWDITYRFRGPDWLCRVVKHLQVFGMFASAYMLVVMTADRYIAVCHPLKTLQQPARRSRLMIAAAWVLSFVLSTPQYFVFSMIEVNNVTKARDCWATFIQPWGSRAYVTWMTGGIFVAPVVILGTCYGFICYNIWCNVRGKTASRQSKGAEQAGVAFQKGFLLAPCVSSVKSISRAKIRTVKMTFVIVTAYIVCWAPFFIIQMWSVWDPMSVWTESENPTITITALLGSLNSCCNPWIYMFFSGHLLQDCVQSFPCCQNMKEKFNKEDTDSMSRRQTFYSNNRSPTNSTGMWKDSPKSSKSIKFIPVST

SMILES | Ki
Cc1ccc(-n2c(C)nnc2[C@H]2CC[C@H](Oc3ccccn3)CC2)cc1F [Example 20, trans((4-(4-(3-Fluoro-4-methylphenyl)-5-methyl-4H-1,2,4-triazol-3-yl)cyclohexyl)oxy)pyridine] | 1.82 nM
Cc1nnc([C@H]2CC[C@H](Oc3ccccn3)CC2)n1-c1ccc(Cl)cn1 [Example 23] | 17 nM
Cc1ccc(-n2c(C)nnc2[C@H]2CC[C@H](Oc3ccc(C)cn3)CC2)cc1 [Example 57, transMethyl-2-[4-[5-methyl-4-(4-methylphenyl)-1,2,4-triazol-3-yl]cyclohexyl] oxypyridine] | 0.447 nM
CN(C)CCOc1nnc([C@H]2CC[C@H](Oc3ccccn3)CC2)n1-c1ccc(Cl)cc1 [Example 51] | 32.4 nM
Cc1ccc(-n2c(C)nnc2[C@H]2CC[C@H](Oc3ccc(C)nc3)CC2)cc1 [Example 65, transMethyl-5-[4-[5-methyl-4-(4-methylphenyl)-1,2,4-triazol-3-yl]cyclohexyl]oxypyridine] | 3.39 nM
